# Measured values as given in patent US11846640B2, “Identification of anticoagulants in a sample” (DSM IP Assets B.V., priority 2013, dated 2023).
# Legend:
# Format in all cases: biochemical, human
# [1] = tested on: normal plasma pool (NPP); assay: PiCT Method 4 (inverted PiCT) clotting time on ACL TOP 500; conditions: for Clotting time: Table 10B, PiCT Method 4, NPP spiked, mean n = 4; for PiCT ® method 4 clotting time: Table 11
# Protocol: The present invention is in one aspect directed to the use of a clotting assay, in particular the PiCT® testing method on a detection system such as e.g. the ACL TOP® 500 analyzer and to a method to quantitatively and qualitatively detect anticoagulants in a sample, e.g. blood or plasma. […] PiCT® Method 4 or PiCT® inverted includes that first the start reagent is added to the sample, the mixture allowed to proceed according to the manufacturer's instructions followed by addition of the activator, i.e. a reversed order compared to standard PiCT® (see above). PiCT® Method 1 to 4 is described in more detail in the Examples.
# (§1) The 4 methods (see above) are in more detail described in the Examples. Specific pipetting schemes were designed using NPP spiked with incremental amounts of anticoagulants in order to achieve high reproducibility of the test system, which is required for drug identification including use in a POC system. With regards to the ACL TOP® 500 analyzer, PiCT® Method 1 to 4 has been established as follows: • PiCT® Method 1: 50 μl of plasma is incubated for 180 sec with 50 μl of reagent 1 and afterwards 50 μl of reagent 2 is added and the time to clot is recorded on the ACL TOP® 500 (i.e. pipetting scheme: P-50/A-50/I-180/50-S).
# After calculation of the RR for the different kind of anticoagulants (see Example 1) samples of NPP spiked with incremental amounts of anticoagulants were used in the ACL TOP® 500, wherein 45 μl start reagent was incubated with 140 μl plasma for 60 sec. The time to clot was recorded after addition of 40 μl of activator (i.e. so-called inverted PiCT®).
# [2] = tested on: normal plasma pool (NPP); assay: PiCT Method 1 (standard Pefakit PiCT) clotting time on ACL TOP 500; conditions: for Clotting time with PiCT ® Method 1: spiked plasma; for Clotting time: Table 7C, PiCT Method 1, NPP spiked, mean n = 4
# Description: As described by Korte et al. (supra) or in EP 1240528, Pefakit® PiCT® is a functional clotting assay based on the direct activation of the prothrombinase complex which results in a fine-tuned analytical output directly proportional to the final anticoagulant activity of the factor Xa or factor IIa inhibitors (see Calatzis, Haemostasis 2000, 30:172-174). To perform the Pefakit® PiCT® test (referred to herein as standard “PiCT® or PiCT® Method 1), a defined amount of PiCT® activator (=reagent 1) is added to a sample, such as, e.g., plasma. The mixture is allowed to proceed at 37° C. for a specific period of time. The Start reagent (=reagent 2) is then added to the mixture and the time required for clot formation is measured. The presence of anticoagulants in the samples dose-dependently prolongs the time to clot. Pefakit® PiCT® is adapted to laboratory instruments based on mechanical or optical detection systems, including but not limited to ACL TOP® family (Instrumentation Laboratory), preferably ACL TOP® 500, STA Compact® series (Stago) or the BCS® XP series (Siemens).
# as §1, with “P-50/A-50/I-180/50-S). This method is in particularly useful for detection of UFH, LMWH or hirudin. • PiCT® Method 2: P-75/A-65/I-180/35-S on the ACL TOP® 500 or P-80/A-65/I-180/40-S on the STA Compact® or P-75/A-65/I-180/S-40 on the BCS® XP. This method is in particularly useful for fondaparinux. • PiCT® Method 3: P-90/A-70/I-180/40-S on the ACL TOP® 500 or STA Compact®, or P-70/A-60/I-180/45-S on the BCS® XP. This method is in particularly useful for dabigatran or argatroban. • PiCT® Method 4: P-140/S-45/I160/A-40 on the ACL TOP® 500 or STA Compact®, or P-125/S-45/I-150/A-40 on the BCS® XP. This method is in particularly useful for rivaroxaban or apixaban.” for “P-50/A-50/I-180/50-S).”
# With the normal PiCT®, i.e. PiCT® Method 1, wherein 50 μl of plasma is mixed with the same amount of reagent 1 (PiCT® activator), incubated for 180 sec and mixed with the same amount of reagent 2 (PiCT® start reagent) in a ACL TOP® 500 analyzer, the presence of NOACs cannot be determined in a sample. This is true even at high levels of said drugs in the sample, i.e. in the range of 300 ng/ml. Thus, in order to determine which NOAC is present in the sample, a combination of PiCT® Method 1 and PiCT® method 4 has to be used (see above for detailed description). To confirm this, spiked plasma samples with different levels of NOACs were prepared and the clotting time measured using first PiCT® Method 1 followed by PiCT® Method 4. […] In case of dabigatran present in the sample, both PiCT® Method 1 (which had to be adapted, i.e. PiCT® Method 3) and 4 are out of range as indicated in bold.
# [3] = tested on: plasma samples; assay: aPTT (HemosIL aPTT SP) clotting time; conditions: Table 6, spiked plasma, mean
# Protocol: (§2) In order to address the above question, i.e. to determine the nature of an anticoagulant in a sample, a combination of several methods has to be performed, including PiCT® Method 1, PiCT® Method 4, aPTT (HemosIL™ aPTT SP), PT (HemosIL™ PT recombiplastin), and sometimes even a modified PiCT® Method 1 wherein polybrene has been added. In order to simulate this, plasma samples spiked with different levels of anticoagulants were analyzed using the ACL TOP® 500 analyzer. For each drug, a specific pattern was obtained, i.e. clotting times within the RR and clotting times above the RR, depending on the used testing method, which is unique at least for the class of anticoagulant or even for a specific anticoagulant.
# [4] = tested on: plasma samples; assay: PT (HemosIL PT recombiplastin) clotting time; conditions: Table 6, spiked plasma, mean
# Protocol: In order to address the above question, i.e. to determine the nature of an anticoagulant in a sample, a combination of several methods has to be performed, including PiCT® Method 1, PiCT® Method 4, aPTT (HemosIL™ aPTT SP), PT (HemosIL™ PT recombiplastin), and sometimes even a modified PiCT® Method 1 wherein polybrene has been added. In order to simulate this, plasma samples spiked with different levels of anticoagulants were analyzed using the ACL TOP® 500 analyzer.
# [5] = tested on: plasma samples; assay: PiCT Method 1 with polybrene added, clotting time; conditions: Table 6, spiked plasma, mean
# Description: By the addition of polybrene a distinction can be done, which of the anticoagulants is really present in the sample: if after addition of polybrene the measured clotting times are again back to RR when using the PiCT® Method 1, the sample comprises heparins, such as e.g. UFH or LMWH. Alternatively, if the result is not going back to RR, the sample comprises low concentrations of dabigatran or hirudin. […] The particular clotting times measured for the different anticoagulants are shown in Table 6, which is an example of results obtained in spiked plasma samples.
# as §2
molecule,measurement,setting,value
COc1ccc(-n2nc(C(N)=O)c3c2C(=O)N(c2ccc(N4CCCCC4=O)cc2)CC3)cc1 [apixaban],Clotting time with PiCT ® Method 4,"[1]; Table 4, NPP spiked with 20 ng per ml",45 s
same,Clotting time with PiCT ® Method 4,"[1]; Table 4, NPP spiked with 35 ng per ml",54 s
same,Clotting time with PiCT ® Method 4,"[1]; Table 5, spiked plasma, 20 ng per ml",45 s
same,Clotting time with PiCT ® Method 4,"[1]; Table 5, spiked plasma, 35 ng per ml",54 s
same,Clotting time with PiCT ® Method 4,"[1]; Table 5, spiked plasma, 300 ng per ml",124.3 s
same,Clotting time with PiCT ® Method 4,"[1]; Table 6, spiked plasma, 50 ng, mean",54.4 s
same,Clotting time with PiCT ® Method 4,"[1]; Table 6, spiked plasma, 200 ng, mean",151.0 s
same,Clotting time,[1]; 5 ng/ml,65 s
same,Clotting time,[1]; 10 ng/ml,74 s
same,Clotting time,[1]; 50 ng/ml,109 s
same,Clotting time,[1]; 100 ng/ml,136 s
same,Clotting time,[1]; 200 ng/ml,167 s
same,Clotting time,[1]; 500 ng/ml,233 s
same,PiCT ® method 4 clotting time,"[1]; spiked plasma, 20 ng/mL (wash off level)",45 sec (n = 3)
same,PiCT ® method 4 clotting time,"[1]; spiked plasma, 35 ng/mL (wash off level)",54 sec (n = 3)
same,Clotting time with PiCT ® Method 1,"[2]; Table 5, 20 ng per ml (title: Method 3 for dabigatran)",18 s
same,Clotting time with PiCT ® Method 1,"[2]; Table 5, 35 ng per ml (title: Method 3 for dabigatran)",18 s
same,Clotting time with PiCT ® Method 1,"[2]; Table 5, 300 ng per ml (title: Method 3 for dabigatran)",24.9 s
same,Clotting time with PiCT ® Method 1,"[2]; Table 6, 50 ng, mean",18.9 s
same,Clotting time with PiCT ® Method 1,"[2]; Table 6, 200 ng, mean",22.3 s
same,Clotting time with aPTT,[3]; 50 ng,31.0 s
same,Clotting time with aPTT,[3]; 200 ng,36.4 s
same,Clotting time with PT,[4]; 50 ng,11.2 s
lepirudin [hirudin],Clotting time with PiCT ® Method 4,"[1]; Table 4, NPP spiked with 0.4 μg per ml",300 s
same,Clotting time with PiCT ® Method 4,"[1]; Table 6, spiked plasma, 0.4 μg, mean",300.0 s
same,Clotting time with PiCT ® Method 4,"[1]; Table 6, spiked plasma, 2.5 μg, mean",300.0 s
same,Clotting time with PiCT ® Method 1 + polybrene,[5]; 0.4 μg,89.5 s
same,Clotting time with PiCT ® Method 1 + polybrene,[5]; 2.5 μg,258.0 s
same,Clotting time with PiCT ® Method 1,"[2]; Table 6, 0.4 μg, mean",88.9 s
same,Clotting time with PiCT ® Method 1,"[2]; Table 6, 2.5 μg, mean",264.5 s
same,Clotting time,[2]; 0.2 μg/ml,41 s
same,Clotting time,[2]; 0.4 μg/ml,55 s
same,Clotting time,[2]; 0.6 μg/ml,69 s
same,Clotting time,[2]; 0.9 μg/ml,86 s
same,Clotting time,[2]; 1.3 μg/ml,113 s
same,Clotting time,[2]; 1.7 μg/ml,142 s
same,Clotting time,[2]; 2.0 μg/ml,158 s
same,Clotting time,[2]; 2.4 μg/ml,183 s
same,Clotting time,[2]; 2.8 μg/ml,209 s
same,Clotting time,[2]; 3.0 μg/ml,219 s
same,Clotting time with aPTT,[3]; 0.4 μg,60.6 s
same,Clotting time with aPTT,[3]; 2.5 μg,108.8 s
same,Clotting time with PT,[4]; 0.4 μg,11.8 s
same,Clotting time with PT,[4]; 2.5 μg,14.6 s
